Results on 83 compounds are retold here after publication PMC12040169 (PLOS Biology, 2025).

Usually viability stands for a read-out of living cells in per cent, often relative to untreated cells.

This data set can be described thus: in vitro. The conditions noted are these: human, hela cells, % viability.
Take `O=C(CSc1ccc(Cl)cc1)Nc1ccc(CN2CCOCC2)cc1` [CBK305855]: the viability at 28.5 h, 10 µM stood at 89%.
Turning to `Cc1nc2nc(N)nn2c(C)c1CCC(=O)NCc1ccccc1F` [CBK305860], the viability at 28.5 h, 10 µM is 77.6%.
Turning to `CCNc1nc(-c2ccc3c(c2)CCCN3S(C)(=O)=O)cs1` [CBK305861], the viability at 28.5 h, 10 µM came out at 89.8%.
Regarding `CCOC(=O)c1sc2nc(C(C)N3CCOCC3)[nH]c(=O)c2c1C` (centres unmarked) [CBK305862], the viability at 28.5 h, 10 µM was 82.5%.
Next, `CC(=O)Nc1ccc(-c2csc(N3CCN(C)CC3)n2)cc1` [CBK305865]: 93.6%; `COc1ccccc1CN(Cc1cccs1)C(=O)Cn1cnnn1` [CBK305866]: 96.5%.
Take `Cc1cc(C(=O)CSc2nc3cc(Cl)cnc3[nH]2)c(C)n1C1CC1` [CBK305867]: the viability at 28.5 h, 10 µM came out at 79.5%.
On to `CC(=O)Nc1cccc(C(=O)OCC(=O)N2CCCCC2C)c1` (centres unmarked) [CBK305868], for which the viability at 28.5 h, 10 µM is 76.6%.
The same measure for `CCOC(=O)N1CCN(S(=O)(=O)c2ccc3oc(=O)ccc3c2)CC1` [CBK305870]: 82.6%.
Consider `O=C(c1cccs1)N1CCN(Cc2cc(=O)n3ccsc3n2)CC1` [CBK305872], for which the viability at 28.5 h, 10 µM was found to be 119%.
The same measure for `COc1ccccc1CN(C)C(C)C(=O)Nc1ccc(NC(C)=O)cc1` (centres unmarked) [CBK305873]: 100%; for `CCCCn1c(SC(C)C(N)=O)nc2cc(C(=O)OC)ccc2c1=O` (centres unmarked) [CBK305877]: 84%.
`CCn1cnnc1CNC(=O)N1CCCN(Cc2cccs2)CC1` [CBK305882]: the viability at 28.5 h, 10 µM stood at 97.6%.
`CCOC(=O)N1CCN(Cc2ccc(OCc3cccnc3)cc2)CC1` [CBK305883]: the viability at 28.5 h, 10 µM came out at 79.1%.
With `CCOC(=O)C1CSCCN1C(=O)c1cc(C)n(-c2nccs2)c1C` (centres unmarked) [CBK305884], the viability at 28.5 h, 10 µM worked out at 75%.
Next, `Cc1cc(C)n2ncc(C(=O)N3CCCC3c3ccc(F)cc3)c2n1` (centres unmarked) [CBK305885]: 82.9%; `Cn1nc(C(=O)NCC(c2ccccc2Cl)N2CCOCC2)ccc1=O` (centres unmarked) [CBK305886]: 87.3%.
The same measure for `CCN1CCN(c2ccc(NC(=O)Cc3cn4ccsc4n3)cc2)CC1` [CBK305892]: 81.3%; for `CC1CCc2c(sc3ncnc(OCC(=O)NC4CCCC4)c23)C1` (centres unmarked) [CBK305893]: 83.1%; for `Cc1cc(OCC(=O)N2CCN(c3ccccc3F)CC2)no1` [CBK305898]: 87.1%.
`Cc1cc(NC(=O)N2CCN(c3ncccc3C#N)CC2)no1` [CBK305901]: the viability at 28.5 h, 10 µM was determined as 80.5%.
For `Cc1nc(NC(=O)CN2CCN(c3cccc(Cl)c3)CC2)sc1C` [CBK305902], the viability at 28.5 h, 10 µM was 88.5%.
Regarding `Cn1cccc1C(=O)OCC(=O)N1CCCCC1` [CBK305903], the viability at 28.5 h, 10 µM was 99.5%.
`COc1ccc(CNC(=O)c2sccc2S(=O)(=O)N2CCCCC2)cc1` [CBK305904]: the viability at 28.5 h, 10 µM is 101%.
Next, `Cc1oc(NC(=O)CN2CCN(c3cccc(Cl)c3)CC2)c(C#N)c1C` [CBK305906]: 82.5%; `Cc1oc(NC(=O)CN2CCN(c3ccc(F)cc3)CC2)c(C#N)c1C` [CBK305907]: 86.7%.
In the case of `Cc1oc(NC(=O)CN2CCN(c3ccccc3Cl)CC2)c(C#N)c1C` [CBK305908], the viability at 28.5 h, 10 µM worked out at 84.7%.
For the compound `COc1ccc(-c2csc(N3CCN(C)CC3)n2)cc1F` [CBK305910], the viability at 28.5 h, 10 µM came to 88.7%.
Next, `CCCn1c(CN2CCOCC2)nc2c1c(=O)n(C)c(=O)n2C` [CBK305911]: 103%.
As to `CC(C)Cn1c(CN2CCOCC2)nc2c1c(=O)n(C)c(=O)n2C` [CBK305913], the viability at 28.5 h, 10 µM stood at 91.3%.
`Cc1cccc(OCC(=O)Nc2ncccc2OCCCC#N)c1` [CBK305918]: the viability at 28.5 h, 10 µM was 90.5%.
With `O=C(CN1CCCN(c2nccs2)CC1)Nc1cc(Cl)ccc1Cl` [CBK305921], the viability at 28.5 h, 10 µM is 99.7%.
Next, `Cc1c(C(=O)N2CCCC2C(N)=O)nnn1Cc1ccc(F)cc1F` (centres unmarked) [CBK305925]: 94.5%; `FC(F)(F)c1nnc2ccc(N3CCN(Cc4ccsc4)CC3)nn12` [CBK305930]: 88.6%; `COc1ccc(Cl)cc1CN(C)C(=O)c1ccc[nH]c1=O` [CBK305933]: 90.6%.
On to `CCC1CCC2(CC1)NC(=O)N(CC(=O)Nc1nccs1)C2=O` (centres unmarked) [CBK305936], for which the viability at 28.5 h, 10 µM was 95.9%.
In the case of `Cc1noc(C)c1CCC(=O)NCc1cccc(C#N)c1` [CBK305938], the viability at 28.5 h, 10 µM worked out at 108%.
As to `Cc1ccc(-c2nn(CCC#N)cc2C(=O)N2CCOCC2)cc1C` [CBK305940], the viability at 28.5 h, 10 µM is 96.7%.
`CCN(CC)C(=O)c1cn(CCC#N)nc1-c1cccc(OC)c1` [CBK305941]: the viability at 28.5 h, 10 µM was determined as 92.6%.
The same measure for `CCCC(=O)Nc1ccc(OCc2nnc(C)o2)c(C(C)=O)c1` [CBK305943]: 92.9%.
In the case of `CC1CCc2c(sc3ncnc(NCCCN4CCCCCC4=O)c23)C1` (centres unmarked) [CBK305947], the viability at 28.5 h, 10 µM was determined as 85.4%.
As to `O=C(Cn1cccnc1=O)NCc1cccnc1OCC(F)(F)F` [CBK305949], the viability at 28.5 h, 10 µM is 109%.
Turning to `Cc1cc(Br)ccc1C(=O)N1CC(C(N)=O)CCC1C` (centres unmarked) [CBK305954], the viability at 28.5 h, 10 µM was found to be 83.2%.
For the compound `CN(C)C(=O)c1cccc(CNc2ncnc3c2cnn3CCC#N)c1` [CBK305955], the viability at 28.5 h, 10 µM turned out to be 88.3%.
For the compound `CC1CN(c2ccc(CNc3ncccc3C#N)cn2)CCO1` (centres unmarked) [CBK305957], the viability at 28.5 h, 10 µM amounted to 99.5%.
Consider `CC(Sc1nc2ccc(F)cc2c(=O)[nH]1)C(=O)N1CCOCC1` (centres unmarked) [CBK305958], for which the viability at 28.5 h, 10 µM is 108%.
The same measure for `OCCn1ncc2c(Nc3cccc(Cn4cncn4)c3)ncnc21` [CBK305965]: 115%; for `CCc1ccc(NC(=O)CN(CCO)Cc2cc(Br)ccc2F)cc1` [CBK305968]: 84.8%; for `COc1ccc(C)cc1-n1ccc(C(=O)N2CCSCC2)n1` [CBK305972]: 96.5%.
As for `Cc1ccc(-c2nn(CCC#N)cc2C(=O)N2CCCC2)cc1C` [CBK305974], the viability at 28.5 h, 10 µM was 86.8%.
Take `CC(=O)N(C)Cc1cccc(Nc2ncnc3c2cnn3CCO)c1` [CBK305979]: the viability at 28.5 h, 10 µM came to 96.1%.
`O=C(NCCN1CCCCC1)C1CC(=O)N(CCc2ccccc2)C1` (centres unmarked) [CBK305986]: the viability at 28.5 h, 10 µM was determined as 91.7%.
For the compound `CS(=O)(=O)N1CCC(Nc2nc(-c3cccs3)nc3ccccc23)CC1` [CBK305987], the viability at 28.5 h, 10 µM is 87.3%.
Regarding `COC(=O)C(C)(C)NC(=O)c1ccn(-c2cc(C)ccc2OC)n1` [CBK305989], the viability at 28.5 h, 10 µM is 107%.
With `O=C(CN1CCC(NC(=O)c2cccs2)CC1)Nc1ccc(F)c(F)c1` [CBK305991], the viability at 28.5 h, 10 µM was 83.8%.
Turning to `CCN(CC(C)C#N)C(=O)c1cc2ccccc2oc1=O` (centres unmarked) [CBK305992], the viability at 28.5 h, 10 µM was found to be 87.8%.
Regarding `CCOc1ccc2c(c1)CN(CC(=O)Nc1cc(C)no1)CC2` [CBK305993], the viability at 28.5 h, 10 µM came out at 92.9%.
`CC(C)Cc1noc(CN2CCC(C(=O)NCc3ccco3)CC2)n1` [CBK305995]: the viability at 28.5 h, 10 µM amounted to 107%.
Consider `CC(=O)Nc1cccc(-n2nnnc2SC2CCCC2)c1` [CBK305996], for which the viability at 28.5 h, 10 µM stood at 95.3%.
Turning to `O=C(CN1CCC(NC(=O)c2cccs2)CC1)Nc1cc(F)ccc1F` [CBK305997], the viability at 28.5 h, 10 µM turned out to be 102%.
Next, `Cc1noc(C)c1CN1CCC(c2ccccc2)CC1` [CBK306001]: 89.9%; `N#Cc1ccc(OCC(=O)Nc2cccnc2-n2cncn2)cc1` [CBK306004]: 85.9%; `CCOC(=O)CN1CCN(c2cc(C#N)ccn2)CC1` [CBK306006]: 89.3%.
Next, `CCOC(=O)c1cc2cc(NC(=O)N(CCO)C3CC3)ccc2s1` [CBK306007]: 87.6%.
On to `Cc1nnc(CCNC(=O)c2cccc(C#N)c2)n1C` [CBK306017], for which the viability at 28.5 h, 10 µM was found to be 85.4%.
For the compound `Cc1cc(N2CCOC(c3nc(C)n[nH]3)C2)c2ccc(F)c(F)c2n1` (centres unmarked) [CBK306018], the viability at 28.5 h, 10 µM was 92.2%.
In the case of `CCN(CCO)C(=O)C(C)Oc1cc(C)ccc1Cl` (centres unmarked) [CBK306019], the viability at 28.5 h, 10 µM came out at 86.6%.
Take `CCNS(=O)(=O)c1ccc2c(c1)N(Cc1cccnc1C)CC2` [CBK306020]: the viability at 28.5 h, 10 µM was 92.1%.
On to `CCOc1ccc(NC(=O)CCc2ncc(C(C)(C)C)o2)c(C)c1` [CBK306021], for which the viability at 28.5 h, 10 µM came to 104%.
Consider `CSc1nnc(CCCNC(=O)c2cccc(C#N)c2)n1CC(C)C` [CBK306023], for which the viability at 28.5 h, 10 µM came to 108%.
`CC(=O)C(C)n1c(=O)c2c(nc3oc(C(C)(C)C)cn32)n(C)c1=O` (centres unmarked) [CBK306027]: the viability at 28.5 h, 10 µM was found to be 91.1%.
Consider `COC(=O)Cn1c(=O)c2c(nc3oc(C(C)(C)C)cn32)n(C)c1=O` [CBK306029], for which the viability at 28.5 h, 10 µM came out at 84.5%.
Take `Cn1ccc(NC(=O)c2cccc(S(=O)(=O)N3CCCC3)c2)n1` [CBK306032]: the viability at 28.5 h, 10 µM came to 104%.
On to `COC(=O)CCn1c(=O)c2c(nc3oc(C)c(C)n32)n(C)c1=O` [CBK306033], for which the viability at 28.5 h, 10 µM came out at 109%.
On to `CCn1c(SCC(=O)NC(=O)NC2CCCCC2)nc2ccccc21` [CBK306037], for which the viability at 28.5 h, 10 µM came to 93.6%.
`O=C1CN(Cc2nc(-c3cccc(C(F)(F)F)c3)no2)CCN1` [CBK306038]: the viability at 28.5 h, 10 µM came out at 92.9%.
For the compound `CC(=O)Nc1cccc(C(=O)OCC(=O)c2cccs2)c1` [CBK306040], the viability at 28.5 h, 10 µM turned out to be 105%.
For the compound `COC(=O)c1ccc2c(=O)n(CC3CCCO3)c(SCCO)nc2c1` (centres unmarked) [CBK306041], the viability at 28.5 h, 10 µM came out at 109%.
Take `COC(=O)c1ccc2c(=O)n(CC(C)C)c(SC)nc2c1` [CBK306042]: the viability at 28.5 h, 10 µM turned out to be 81.3%.
The same measure for `Cc1nn(-c2ccccc2)c(Cl)c1CN1C(=O)NC2(CCCCC2)C1=O` [CBK306043]: 83.8%; for `COC(=O)c1sc2[nH]c(CN(C)Cc3ccco3)nc(=O)c2c1C` [CBK306047]: 82.6%; for `O=C(NCC(=O)N1CCc2ccccc2C1)C1CCCCC1` [CBK306049]: 107%.
Consider `Cc1cc(C(=O)CSc2nnc(N3CCCC3)n2C2CC2)c(C)n1C` [CBK306051], for which the viability at 28.5 h, 10 µM was 65.1%.
